The text below walks through data of patent US9447068B2, “Functionalized polymer compositions” (Novus International Inc., priority 2012, dated 2016).

The structures appear in SMILES notation.

In the experiment the test system is Ross 708 male broilers. Briefly: In vivo efficacy study in chickens: methionine source in methionine-deficient diet. To be noted: young broilers, 0 to 14 days of age, 0.15% added methionine, diet deficient in methionine (0.26%). On the procedure: HMTBA homopolymer was compared to HMTBA calcium salt (MHA) in young broilers chicks as methionine source with a diet deficient in dietary methionine (0.26%) as negative control. A total of 108 Ross 708 male broilers were randomly assigned to 18 battery pens with 6 birds per pen. Six replicate pens were fed one of the 3 test diets from 0 to 14 days of age. HMTBA and MHA were added at equal molar basis to provide 0.15% added methionine. Growth performance parameters including body weight, feed conversion ratio (FCR), feed intake, and mortality, were measured and the body weight and FCR results are shown in FIG. 4.

`CSCCC(O)C(=O)[O-].CSCCC(O)C(=O)[O-].[Ca+2]` (stereo not shown) [MHA, HMTBA calcium salt]: the body weight entry is “significantly increased”, the “feed conversion ratio (FCR)” value is listed as “significantly improved”, the performance index entry was “significantly increased” and the weight gain entry is “significantly increased”.
